Measurements published in patent US5214034A, “Catechol derivatives, and preventive and remedial preparations for regressive disorders in the central nervous system containing the same” (priority 1986, dated 1993).
Where two headings read alike, the source gives them in different places.

Assays:
[1] = system: production and secretion of NGF on L-M cells; experiment: Promoting action for the production and secretion of NGF on L-M cells of mouse (ELISA); assay type: cell-based; conditions: for fold induction at 30 µM / fold induction at 150 µM / fold induction at 100 µM: Mus musculus; for Ratio of NGF increase: 1440 min
From the text: Catecholamines have also been found in a relatively high concentration to accelerate these functions without being mediated by adrenergic receptors [Y. Furukawa et al., J. Biol. Chem., 261, 6039-6047 (1986)].
The compound having a high activity in Table 1, that is, the catechol derivative having a n-alkyl group in the 3 or 4 position on the ring has been observed an acute cell toxicity in higher concentrations. The toxicity was considered the result of two hydroxyl groups in the catechol structure. Then the hydroxyl groups were esterified or etherified and the resulting derivative was examined the effect on the activity for the production and secretion of NGF.
The experiment was performed according to the procedures of Y. Furukawa et al. which is described in J. Bis Chem., 261, 6039-6047 (1986).
The medium was cultured for 3 days at a temperature of 37° C. After completing the confluency (about 10^6 cells/well), the medium was changed to Medium 199 (0.5 ml/well) containing 0.5% bovine serum albumin (Fraction V, a product of Armour Co.). The sample of the derivative is contained in the medium at a prescribed concentration as illustrated in the Tables.

[2] = system: production and secretion of NGF in brain astroglial cells; experiment: Promoting activity for the production and secretion of NGF in brain astroglial cells of mouse (ELISA)
Method: The experiment was performed by inducing the astroglial cells from mouse forebrain to culture system according to the procedures of S. Furukawa et al. which is described in Biochem. Biophys. Res. Commun., 136, 57-63 (1986).
That is, forebrains of 8-day old mice were dissected out and cut into small pieces. […] Cells and cell clamps were recovered by centrifugation at 200 xg for 5 minutes. They were cultured in Dulbecco modified Eagle's medium (a product of Gibco Co. hereinafter abbreviated as DMEM) containing 10% of fetal calf serum, […] of penicillin, and 50 μg/ml of streptomycin, for 10 to 14 days with medium changes every 3 days. After completing confluency, the cells were dissociated by trypsin treatment and recultured in new culture flasks. This procedure was repeated further twice and more. […] The cells will hereinafter be referred to as astroglial cells.
Astroglial cells were innoculated in 24-well plates having a well surface area of 2.1 cm^2 (a product of Falcon Co.) at a cell density of about 3×10^4 cells/well and cultured for 3 days in DMEM . medium supplemented with 10% of fetal calf serum. After completing confluency about 10^7 cells/well), the medium was changed to DMEM medium (0.5 ml/well) supplemented with 0.5% of bovine serum albumin ((fraction V) and cultured for 3 days. The culture was further continued with medium changes every 3 days. After cells were practically synchronized in the quiscent stage, the medium was changed to 0.5 ml of the medium supplemented with 0.5% of bovine serum albumin and containing a prescribed concentration of test sample as illustrated in Tables. […] Data are expressed as fold increase in NGF content over that in the absence of the test sample. […] Data are presented as means ±SE of four determinations.

[3] = 24 h, Table 2, 0.03 mM, 24-hr culture, read-out: Ratio of NGF increase, 24-hr culture
[4] = 24 h, Table 2, 0.15 mM, 24-hr culture, read-out: Ratio of NGF increase, 24-hr culture
[5] = 48 h, Table 2, 0.03 mM, 48-hr culture, read-out: Ratio of NGF increase, 48-hr culture
[6] = 48 h, Table 2, 0.15 mM, 48-hr culture, read-out: Ratio of NGF increase, 48-hr culture
[7] = 24 h, read-out: Ratio of NGF increase, 24-hr culture, Table 4, 0.10 mM, 24-hr culture
[8] = 24 h, read-out: Ratio of NGF increase, 24-hr culture, Table 4, 0.25 mM, 24-hr culture
[9] = 48 h, read-out: Ratio of NGF increase, 48-hr culture, Table 4, 0.10 mM, 48-hr culture
[10] = 48 h, read-out: Ratio of NGF increase, 48-hr culture, Table 4, 0.25 mM, 48-hr culture
[11] = 24 h, read-out: Ratio of NGF increase, Table 3, 0.10 mM, 24 hours, mean ± SE of four determinations
[12] = 24 h, read-out: Ratio of NGF increase, Table 3, 0.25 mM, 24 hours, mean ± SE of four determinations
[13] = 24 h, Table 1, 0.03 mM, 24 hours, mean ± SE of four determinations, read-out: Ratio of NGF increase
[14] = 24 h, Table 1, 0.10 mM, 24 hours, mean ± SE of four determinations, read-out: Ratio of NGF increase
[15] = 24 h, read-out: Ratio of NGF increase
[16] = 24 h, read-out: Ratio of NGF increase, 24-hr culture
[17] = 48 h, read-out: Ratio of NGF increase, 48-hr culture

COc1ccc(C)cc1O [4-Methylguaiacol, reference compound]
fold induction at 30 µM [1, 3]: 1.09 ± 0.06 | fold induction at 150 µM [1, 4]: 1.03 ± 0.05 | fold induction at 30 µM [1, 5]: 1.1 ± 0.07 | fold induction at 150 µM [1, 6]: 1 ± 0.09

Cc1ccc2c(c1)OC(C)(C)O2 [C(CH3)2 -, R1 = H, R2 = Methyl, 5,2,2-trimethyl-1,3-benzodioxol]
fold induction at 100 µM [2, 7]: 28.6 ± 2.23 | fold induction at 250 µM [2, 8]: 33.7 ± 2.09 | fold induction at 100 µM [2, 9]: 41.6 ± 2.21 | fold induction at 250 µM [2, 10]: 55.2 ± 4.42 | fold induction at 30 µM [1, 3]: 1.35 ± 0.12 | fold induction at 150 µM [1, 4]: 1.22 ± 0.08 | fold induction at 30 µM [1, 5]: 4.33 ± 1.05 | fold induction at 150 µM [1, 6]: 3.86 ± 0.84

Cc1ccc2oc(=O)oc2c1 [CO-, R1 = H, R2 = Methyl, 4-methyl-o-phenylenecarbonate]
fold induction at 100 µM [2, 7]: 52.4 ± 5.29 | fold induction at 250 µM [2, 8]: 44.9 ± 4.25 | fold induction at 100 µM [2, 9]: 73.4 ± 4.25 | fold induction at 250 µM [2, 10]: 78.3 ± 6.5 | fold induction at 30 µM [1, 3]: 4.39 ± 0.62 | fold induction at 150 µM [1, 4]: 4.82 ± 0.55 | fold induction at 30 µM [1, 5]: 7.54 ± 0.72 | fold induction at 150 µM [1, 6]: 6.99 ± 0.52

Cc1ccc2oc(=O)c(=O)oc2c1 [CO.CO-, R1 = H, R2 = Methyl, 6-methyl-1,4-benzodioxine-2,3-dione]
fold induction at 100 µM [2, 7]: 47.2 ± 3.98 | fold induction at 250 µM [2, 8]: 50.6 ± 4.74 | fold induction at 100 µM [2, 9]: 69.6 ± 3.25 | fold induction at 250 µM [2, 10]: 70.2 ± 5.37 | fold induction at 30 µM [1, 3]: 4.24 ± 0.58 | fold induction at 150 µM [1, 4]: 4.62 ± 0.61 | fold induction at 30 µM [1, 5]: 7.6 ± 0.43 | fold induction at 150 µM [1, 6]: 7.03 ± 0.69

CCc1ccc(O)c(O)c1CC [R = Two H, R1 = Ethyl, R2 = Ethyl]
fold induction at 100 µM [2, 11]: 16.7 ± 1.84 | fold induction at 250 µM [2, 12]: 23.6 ± 1.9 | fold induction at 30 µM [1, 13]: 3.01 ± 0.2 | fold induction at 100 µM [1, 14]: 3.24 ± 0.19

CCc1cccc(O)c1O [R = Two H, R1 = Ethyl, R2 = H]
fold induction at 100 µM [2, 15]: 46.2 ± 3.97 | fold induction at 250 µM [2, 15]: 62.8 ± 4.42 | fold induction at 30 µM [1, 15]: 9.76 ± 1.4 | fold induction at 100 µM [1, 15]: 11.7 ± 2.13

Oc1ccccc1O [R = Two H, R1 = H, R2 = H, Catechol]
fold induction at 100 µM [2, 15]: 2.51 ± 0.07 | fold induction at 250 µM [2, 15]: 1.92 ± 0.09 | fold induction at 30 µM [1, 15]: 1.03 ± 0.04 | fold induction at 100 µM [1, 15]: 1.81 ± 0.09 | fold induction at 30 µM [1, 16]: 1.15 ± 0.04 | fold induction at 150 µM [1, 16]: 1.93 ± 0.12 | fold induction at 30 µM [1, 17]: 1.31 ± 0.09 | fold induction at 150 µM [1, 17]: 1.79 ± 0.2

CC(C)c1ccc(O)c(O)c1 [R = Two H, R1 = H, R2 = Isopropyl]
fold induction at 100 µM [2, 11]: 34.6 ± 1.62 | fold induction at 250 µM [2, 12]: 42.9 ± 2.93 | fold induction at 30 µM [1, 13]: 6.17 ± 0.44 | fold induction at 100 µM [1, 14]: 5.9 ± 0.41

CCCCCc1ccc(O)c(O)c1 [R = Two H, R1 = H, R2 = n-Pentyl]
fold induction at 100 µM [2, 11]: 43.8 ± 4.71 | fold induction at 250 µM [2, 12]: 61 ± 5.82 | fold induction at 30 µM [1, 13]: 6.37 ± 0.25 | fold induction at 100 µM [1, 14]: 10.2 ± 0.71

CCC(C)c1ccc(O)c(O)c1 (centres unmarked) [R = Two H, R1 = H, R2 = sec-Butyl]
fold induction at 100 µM [2, 11]: 36.3 ± 3.49 | fold induction at 250 µM [2, 12]: 70.1 ± 5.75 | fold induction at 30 µM [1, 13]: 9.23 ± 1.41 | fold induction at 100 µM [1, 14]: 14.7 ± 1.87

CC(C)(C)c1ccc(O)c(O)c1 [R = Two H, R1 = H, R2 = tert-Butyl]
fold induction at 100 µM [2, 11]: 18.5 ± 1.5 | fold induction at 250 µM [2, 12]: 18.8 ± 2.92 | fold induction at 30 µM [1, 13]: 3.45 ± 0.35

CCc1ccc(O)c(O)c1C [R = Two H, R1 = Methyl, R2 = Ethyl]
fold induction at 100 µM [2, 11]: 50.3 ± 6.27 | fold induction at 250 µM [2, 12]: 26.2 ± 2.6 | fold induction at 30 µM [1, 13]: 6.31 ± 0.39 | fold induction at 100 µM [1, 14]: 3.19 ± 0.73 | Ratio of NGF increase ([1]; Table 1, 0.03 mM, 24 hours, mean ± SE of four determinations, 30 µM): 5.39 ± 0.31 fold | Ratio of NGF increase ([1]; Table 1, 0.10 mM, 24 hours, mean ± SE of four determinations, 100 µM): 5.22 ± 0.27 fold

Cc1ccc(O)c(O)c1C [R = Two H, R1 = Methyl, R2 = Methyl]
fold induction at 30 µM [1, 13]: 2.86 ± 0.12 | fold induction at 100 µM [1, 14]: 3.11 ± 0.22

CCCCc1ccc(O)c(O)c1C [R = Two H, R1 = Methyl, R2 = n-Butyl]
fold induction at 100 µM [2, 11]: 49.8 ± 3.65 | fold induction at 250 µM [2, 12]: 76.2 ± 6.64 | fold induction at 30 µM [1, 13]: 6.87 ± 0.6 | fold induction at 100 µM [1, 14]: 7.73 ± 0.53

CCCc1ccc(O)c(O)c1C [R = Two H, R1 = Methyl, R2 = n-Propyl]
fold induction at 100 µM [2, 11]: 41.3 ± 2.55 | fold induction at 250 µM [2, 12]: 61.6 ± 4.62 | fold induction at 30 µM [1, 13]: 6.34 ± 0.46 | fold induction at 100 µM [1, 14]: 7.25 ± 0.32

CCC(C)c1ccc(O)c(O)c1C (centres unmarked) [R = Two H, R1 = Methyl, R2 = sec-Butyl]
fold induction at 30 µM [1, 13]: 6.74 ± 0.25 | fold induction at 100 µM [1, 14]: 7 ± 0.76

Cc1c(C(C)(C)C)ccc(O)c1O [R = Two H, R1 = Methyl, R2 = tert-Butyl]
fold induction at 100 µM [2, 11]: 9.65 ± 2.42 | fold induction at 250 µM [2, 12]: 24.2 ± 2.73 | fold induction at 30 µM [1, 13]: 2.82 ± 0.14 | fold induction at 100 µM [1, 14]: 3.65 ± 0.39

CCCCc1cccc(O)c1O [R = Two H, R1 = n-Butyl, R2 = H]
fold induction at 100 µM [2, 11]: 56.2 ± 1.87 | fold induction at 250 µM [2, 12]: 93.3 ± 1.65 | fold induction at 30 µM [1, 13]: 8.33 ± 0.52

CCCCc1c(C)ccc(O)c1O [R = Two H, R1 = n-Butyl, R2 = Methyl]
fold induction at 30 µM [1, 13]: 6.33 ± 0.75 | fold induction at 100 µM [1, 14]: 6.9 ± 0.62

CCCCCc1cccc(O)c1O [R = Two H, R1 = n-Pentyl, R2 = H]
fold induction at 100 µM [2, 11]: 37.2 ± 1.28 | fold induction at 250 µM [2, 12]: 51.5 ± 1.4 | fold induction at 30 µM [1, 13]: 5.26 ± 0.43 | fold induction at 100 µM [1, 14]: 9.95 ± 0.98

CCCc1c(C)ccc(O)c1O [R = Two H, R1 = n-Propyl, R2 = Methyl]
fold induction at 30 µM [1, 13]: 6.09 ± 0.65 | fold induction at 100 µM [1, 14]: 6.98 ± 0.51

CC(=O)Oc1ccc(C)cc1OC(C)=O [R = Two acetyl, R1 = H, R2 = Methyl]
fold induction at 100 µM [2, 7]: 49.8 ± 6.44 | fold induction at 250 µM [2, 8]: 41.2 ± 7.32 | fold induction at 100 µM [2, 9]: 77.3 ± 6.52 | fold induction at 250 µM [2, 10]: 82.4 ± 7.24 | fold induction at 30 µM [1, 3]: 4.92 ± 0.94 | fold induction at 150 µM [1, 4]: 4.21 ± 0.4 | fold induction at 30 µM [1, 5]: 7.71 ± 0.86 | fold induction at 150 µM [1, 6]: 6.27 ± 0.75

COc1ccc(C)cc1OC [R = Two methyl, R1 = H, R2 = Methyl, reference compound]
fold induction at 30 µM [1, 16]: 1.04 ± 0.07 | fold induction at 150 µM [1, 16]: 0.98 ± 0.06 | fold induction at 30 µM [1, 17]: 1.03 ± 0.07 | fold induction at 150 µM [1, 17]: 0.98 ± 0.02
